“Also recorded” adds a separate entry of the source. Like-named read-outs stand apart in the source and are kept apart here.
How the values were obtained:
[1] = for Konsistenz mit Zusatz von Harnstoff: 8 mol/L Harnstoff (final), also at substance concentration 400 mmol/L; for Löslichkeit in 96% Ethanol / Löslichkeit in 66% DMSO/Wasser / Löslichkeit in 66% Propylenglycol/Wasser: free-flowing solution; for Löslichkeit in Rinderplasma: solution of comparable consistency; for Einfluß auf die Konsistenz der Zubereitung: addition of 10 mmol/L HCl or NaOH, or 3 mol/L NaCl; for Veränderung der Konsistenz durch Triton X-100 / Veränderung der Konsistenz durch Tween 80: aqueous formulation; for Veränderung der Konsistenz durch Triton X-100: Triton X-100, 1.7%; for Veränderung der Konsistenz durch Tween 80: Tween 80, 4.6% final concentration; for Löslichkeit in 66% DMSO/Wasser / Löslichkeit in 66% Propylenglycol/Wasser: gut löslich at this concentration; for concentration below which a frei fließende Lösung results: in water, printed as 'Unterhalb von etwa'; for Löslichkeit in reinem DMSO: pure DMSO; for Löslichkeit in reinem Propylenglycol: pure Propylenglycol
[2] = T1 relaxivity at 20 MHz, 37°C; type: physicochemical
Experimental: c) Gadolinium-Komplex von 10-[2-Hydroxy-4-aza-5-oxo-7-aza-7-(perfluoroctylsulfonyl)-nonyl]-1,4,7-tris(carboxymethyl)-1,4,7,10-tetraazacyclododecan 10 g (17,09 mmol) der Titelverbindung aus Beispiel 1b) und […] (18,79 mmol) N-Hydroxysuccinimid werden in einer Mischung aus 50 ml Dimethylformamid/50 ml Chloroform gelöst. Bei 0°C gibt man 3,88 g (18,79 mmol) Dicyclohexylcarbodiimid zu und rührt 1 Stunde bei 0°C, anschließend 3 Stunden bei Raumtemperatur. Man kühlt erneut auf 0°C und gibt 5,19 g (51,27 mmol) Triethylamin/50 ml 2-Propanol zu. Anschließend werden 10,78 g (18,79 mmol) Gadolinium-Komplex von 10-(3-Amino-2-hydroxy-propyl)-1,4,7-tris(carboxymethyl)-1,4,7,10-tetraazacyclododecan (WO 95/17451) gelöst in 50 ml Wasser zugegeben und 3 Stunden bei Raumtemperatur gerührt. Man dampft zur Trockne ein, nimmt den Rückstand in einer Mischung aus 200 ml Methanol/100 ml Chloroform auf und filtriert vom Dicyclohexylharnstoff ab. Das Filtrat wird zur Trockne eingedampft und durch RP-Chromatographie gereinigt (RP-18/Laufmittel: Gradient aus Wasser/n-Propanol/ Acetonitril). Ausbeute: 16,37 g (78 % d. Th.) eines farblosen glasigen Feststoffes Wassergehalt: 7,1 % T1-Relaxivität (L/mmol·sec) bei 20 MHz, 37°C: 41 (Wasser) 49 (Humanplasma)
e) Mangan-Komplex von 10-[2-Hydroxy-4-aza-5-oxo-7-aza-7-(perfluoroctylsulfonyl)-nonyl]-1,4,7-tris(carboxymethyl)-1,4,7,10-tetraazacyclododecan (als Natriumsalz) 5 g (5,07 mmol) der Titelverbindung aus Beispiel ld) werden in 100 ml Wasser gelöst und 0,58 g (5,07 mmol) Mangan(II) -carbonat zugegeben. Man rührt3 Stunden bei 80°C. Die Lösung wird filtriert und das Filtrat mit 1 N Natronlauge auf pH 7,2 gestellt, anschließend wird gefriergetrocknet. Ausbeute: 5,87 g (quantitativ) eines farblosen amorphen Pulvers Wassergehalt: 8,4 % T1-Relaxivität (L/mmol·sec) bei 20 MHz, 37°C: 2,7 (Wasser) 4,2 (Humanplasma)
c) Gadolinium-Komplex von 10-[2-Hydroxy-4-aza-5-oxo-7-oxa-10,10,11,11,12,12,13,13,14,14,15,15,16,16,17,17,17-heptadecafluor-heptadecyl]-1,4,7-tris(carboxymethyl)-1,4,7,10-tetraazacyclododecan 7,0 g (13,41 mmol) der Titelverbindung aus Beispiel 2b) und 1,70 g (14,75 mmol) N-Hydroxysuccinimid werden in einer Mischung aus 30 ml Dimethylformamid/ 20 ml Chloroform gelöst. Bei 0°C gibt man 3,04 g (14,75 mmol) Dicyclohexylcarbodiimid zu und rührt 1 Stunde bei 0°C, anschließend 3 Stunden bei Raumtemperatur. Man kühlt erneut auf 0°C und gibt 4,48 g (44,25 mmol) Triethylamin/50 ml 2-Propanol zu. Anschließend werden 8,46 g (14,75 mmol) Gadolinium-Komplex von 10-(3-Amino-2-hydroxy-propyl)-1,4,7-tris(carboxymethyl)-1,4,7,10-tetraazacyclododecan gelöst in 40 ml Wasser zugegeben und 3 Stunden bei Raumtemperatur gerührt. Man dampft zur Trockne ein, nimmt den Rückstand in einer Mischung aus 100 ml Methanol/30 ml Chloroform auf und filtriert vom Dicyclohexylharnstoff ab. Das Filtrat wird zur Trockne eingedampft und durch RP-Chromatographie gereinigt (RP-18/Laufmittel: Gradient aus Wasser/n-Propanol/Acetonitril). Ausbeute: 11,8 g (75 % d. Th.) eines farblosen glasigen Feststoffes Wassergehalt: 8,2 % T1-Relaxivität (L/mmol·sec) bei 20 MHz, 37°C: 19 (Wasser) 33 (Humanplasma)
c) Gadolinium-Komplex von 10-[-2Hydroxy-4-oxa-1H,1H,2H,3H,3H,5H,5H,6H,6H-perfluor-tetradecyl]-1,4,7-tris(carboxymethyl)-1,4,7,10-tetraazacyclododecan 10 g (11,54 mmol) der Titelverbindung aus Beispiel 3b) werden in einer Mischung aus 100 ml Wasser/50 ml 2-Propanol gelöst und 2,09 g (5,77 mmol) Gadoliniumoxid zugegeben. Man rührt 3 Stunden bei 80°C. Die Lösung wird filtriert und im Vakuum zur Trockne eingedampft. Ausbeute: 12,48 g (quantitativ) eines glasigen Feststoffes Wassergehalt: 5,6 % T1-Relaxivität (L/mmol·sec) bei 20 MHz, 37°C: 15,2 (Wasser) 27,5 (Humanplasma)

Nierengefäße der Ratte = assay: Embolisation of the renal vessels in the rat, followed by X-ray; type: in vivo
Experimental: Als gut darstellbare Gefäße wurden die Nierengefäße der Ratte embolisiert.
Dem Tier wurde ein Katheter (20 cm lang, 0,58 mm Øi in die A. mesentrerica eingebunden und in die A. renalis der linken Niere vorgeschoben. Die Lösung der Verbindung aus Beispiel 1 c) (hier 50 mmol/1 mit 150 mg J/ml Isovist ®) wurde mit 160 µl/min appliziert. Gesamtvolumen 250 µl. Anschließend wurde der Katheter in die A. mesenterica zurückgezogen, um die Blutversorgung der Nieren im weiteren Verlauf nicht zu beinträchtigen. […] Zur Kontrolle der Nierendurchblutung wurde 1 Stunde nach der lokalen Applikation der Verbindung aus Beispiel lc) 400 µl des nierengängigen Röntgenkontrastmittels Ultravist ® 300 mg J/ml i.v. in die Schwanzvene gegeben.
Direkt nach intraarterieller, lokaler Gabe von 250 µl einer Lösung der Verbindung aus Beispiel 1 c) (50 mmol/L + 150 mg J/ml Isovist ® )in die katherisierte Nierenarterie (linke Niere, im Bild rechts)
5' p.a. Ultravist ®, 400 µl i.v. 1 Stunde nach lokaler Gabe der Verbindung aus Beispiel 1c) wurde Ultravist ® über die Schwanzvene gegeben.

Lebergefäße am Kaninchen = assay: Embolisation of the liver vessels in the rabbit, followed by X-ray; type: in vivo
Experimental: Als gut darstellbare Gefäße wurden die Lebergefäße am Kaninchen embolisiert.
Dem narkotisierten Tier wurde ein Katheter (60 cm lang, 1,5 mm Øa) über die A. femoralis bis in die Leberarterie durch die Aorta vorgeschoben. Die Lösung von Gadoliniumkomplex aus Beispiel 1c) (50 mmol/L mit 150 mg J/ml Isovist ®) wurde mit 160 µL/min appliziert. Gesamtvolumen 800 µL. Anschließend wurde der Katheter in die Aorta zurückgezogen, um die arterielle Blutversorgung der Leber im weiteren Verlauf nicht zu beeinträchtigen. […] Zum Teil ist die Abnahme der Signalintensität auf ein Herausdiffündieren des Röntgenkontrastmittels Isovist ® zurückzuführen.

VX-2 Tumorzellen = assay: Therapy of a liver carcinoma in the rabbit (chemoembolisation, MRI control); type: in vivo, Chinchilla-Kaninchen; conditions: rabbit VX-2 liver tumour, 75 mmol/l solution with 50 mg Cisplatin, 8 ml via catheter, MRI after 7 days; control animals 3,7 ± 1,5
Experimental: Fünf männlichen Chinchilla-Kaninchen wurde durch Injektion von VX-2 Tumorzellen in den linken Leberlappen ein Tumor gesetzt. Dem narkotisiertem Tier wurde ein Katheter (60 cm lang, 1 mm Øa) über die Arteria femoralis bis in die Nähe des Tumors vorgeschoben. Dann wurde eine Lösung der Titelverbindung aus Beispiel 1 c [75 mmol/l mit 50 mg Cisplatin (=[…]) appliziert. Gesamtvolumen 8 ml.
Anschließend wurde der Katheter entfernt. Nach 7 Tagen wurden die Tiere mittels MRI untersucht. Es zeigte sich, daß der Tumor sich in seiner Größe verringert hat (durchschnittlicher Wachstumsfaktor 0,8 ± 0,2). Bei den Kontrolltieren (3 Tiere) wurden jedoch Wachstumsraten von 3,7 ± 1,5 beobachtet.

[3] = 100 mmol/L in water, by hand or infusion pump through a 20 cm, 0.58 mm Øi tube at 160 µL/min

Row | SMILES | Applizierbarkeit der Lösung [1, 3] | Konsistenz der Lösung ([1]; 100 mmol/L solution in water) | Konsistenz mit Zusatz von Harnstoff [1] | Löslichkeit in 96% Ethanol [1] [mmol/L] | Löslichkeit in Rinderplasma [1] | Einfluß auf die Konsistenz der Zubereitung [1] | Veränderung der Konsistenz durch Triton X-100 [1] | Veränderung der Konsistenz durch Tween 80 [1] | Löslichkeit in 66% DMSO/Wasser [1] [mmol/L] | Löslichkeit in 66% Propylenglycol/Wasser [1] [mmol/L] | concentration below which a frei fließende Lösung results [1] [µM] | Löslichkeit in reinem DMSO [1] | Löslichkeit in reinem Propylenglycol [1] | T1-Relaxivität ([2]; Humanplasma) | T1-Relaxivität ([2]; Wasser) | further results
1 | CCN(CCCCCCCCCCC(=O)NCC(O)CN1CCN(CC(=O)[O-])CCN(CC(=O)[O-])CCN(CC(=O)[O-])CC1)S(=O)(=O)C(F)(F)C(F)(F)C(F)(F)C(F)(F)C(F)(F)C(F)(F)C(F)(F)C(F)(F)F.[Dy+3] (stereo not drawn) [Beispiel 30f)] | problemlos | klar durchsichtig und besitzt eine gelartig feste Konsistenz | frei fließende Lösung | > 500 | ebenso löslich wie in reinem Wasser | keinen Einfluß auf die Konsistenz | Verflüssigung der gelartigen Konsistenz | keine Veränderung der Konsistenz | ≥ 150 | ≥ 250 | 10000 to 20000 | praktisch unlöslich | praktisch unlöslich |  |  | 
2 | O=C([O-])CN1CCN(CC(=O)[O-])CCN(CC(O)COCCC(F)(F)C(F)(F)C(F)(F)C(F)(F)C(F)(F)C(F)(F)C(F)(F)C(F)(F)F)CCN(CC(=O)[O-])CC1.[Gd+3] (stereo not drawn) [3c), Gadolinium-Komplex von 10-[-2Hydroxy-4-oxa-1H,1H,2H,3H,3H,5H,5H,6H,6H-perfluor-tetradecyl]-1,4,7-tris(carboxymethyl)-1,4,7,10-tetraazacyclododecan] |  |  |  |  |  |  |  |  |  |  |  |  |  | 27,5 L/mmol·sec | 15,2 L/mmol·sec | 
3 | O=C([O-])CN1CCN(CC(=O)[O-])CCN(CC(O)CNC(=O)COCCC(F)(F)C(F)(F)C(F)(F)C(F)(F)C(F)(F)C(F)(F)C(F)(F)C(F)(F)F)CCN(CC(=O)[O-])CC1.[Gd+3] (stereo not drawn) [2c), Gadolinium-Komplex von 10-[2-Hydroxy-4-aza-5-oxo-7-oxa-10,10,11,11,12,12,13,13,14,14,15,15,16,16,17,17,17-heptadecafluor-heptadecyl]-1,4,7-tris(carboxymethyl)-1,4,7,10-tetraazacyclododecan] |  |  |  |  |  |  |  |  |  |  |  |  |  | 33 L/mmol/s | 19 L/mmol/s | 
4 | CCN(CC(=O)NCC(O)CN1CCN(CC(=O)[O-])CCN(CC(=O)[O-])CCN(CC(=O)[O-])CC1)S(=O)(=O)C(F)(F)C(F)(F)C(F)(F)C(F)(F)C(F)(F)C(F)(F)C(F)(F)C(F)(F)F.[Gd+3] (stereo not drawn) [Beispiel 1c), Gadolinium-Komplex von 10-[2-Hydroxy-4-aza-5-oxo-7-aza-7-(perfluoroctylsulfonyl)-nonyl]-1,4,7-tris(carboxymethyl)-1,4,7,10-tetraazacyclododecan] | problemlos | klar durchsichtig und besitzt eine gelartig feste Konsistenz | frei fließende Lösung | > 500 | ebenso löslich wie in reinem Wasser | keinen Einfluß auf die Konsistenz | Verflüssigung der gelartigen Konsistenz | keine Veränderung der Konsistenz | ≥ 150 | ≥ 250 | 10000 to 20000 | praktisch unlöslich | praktisch unlöslich | 49 L/mmol/s | 41 L/mmol/s | Abgrenzung der Gefäße der linken Niere in Röntgenaufnahmen (Nierengefäße der Ratte; 250 µl of 50 mmol/1 solution with 150 mg J/ml Isovist into A. renalis at 160 µl/min): scharf gegenüber dem Nierenparenchym abgegrenzt; Enhancement der embolisierten linken Niere und ihres Harnleiters (Nierengefäße der Ratte; 400 µl Ultravist 300 mg J/ml i.v. 1 hour after local application, non-embolised right kidney enhanced): kein Enhancement; also recorded: bleibt dunkel; Signalintensität der Gefäße in der Niere (Nierengefäße der Ratte; up to 45 minutes after administration, attributed to Isovist diffusing out): deutlich ab; Abgrenzung der Gefäße der Leber in Röntgenaufnahmen (Lebergefäße am Kaninchen; 800 µL of 50 mmol/L solution with 150 mg J/ml Isovist into liver artery at 160 µL/min): scharf gegenüber dem Leberparenchym abgegrenzt; Signalintensität der Gefäße in der Leber (Lebergefäße am Kaninchen; within 60 minutes after administration): nur langsam ab; durchschnittlicher Wachstumsfaktor des Tumors (VX-2 Tumorzellen): 0,8 ± 0,2; Applizierbarkeit der Lösung ([1]; 100 mmol/1 in water with 100 mg J/ml Isovist, 20 cm, 0,58 mm Øi tube at 160 µl/min): problemlos; Konsistenz der Lösung ([1]; 100 mmol/1 solution in water with 100 mg J/ml Isovist): klar durchsichtig und besitzt eine gelartig feste Konsistenz
5 | CCN(CC(=O)NCC(O)CN1CCN(CC(=O)[O-])CCN(CC(=O)[O-])CCN(CC(=O)[O-])CC1)S(=O)(=O)C(F)(F)C(F)(F)C(F)(F)C(F)(F)C(F)(F)C(F)(F)C(F)(F)C(F)(F)F.[Mn+2].[Na+] (stereo not drawn) [Beispiel 1e), Mangan-Komplex von 10-[2-Hydroxy-4-aza-5-oxo-7-aza-7-(perfluoroctylsulfonyl)-nonyl]-1,4,7-tris(carboxymethyl)-1,4,7,10-tetraazacyclododecan (als Natriumsalz)] |  |  |  |  |  |  |  |  |  |  |  |  |  | 4,2 L/mmol·sec | 2,7 L/mmol·sec | 

— patent EP0882010B1, “PHARMACEUTICAL AGENTS CONTAINING PERFLUOROALKYL-CONTAINING METAL COMPLEXES AND THE USE THEREOF IN TUMOUR THERAPY AND INTERVENTIONAL RADIOLOGY” (SCHERING AKTIENGESELLSCHAFT, priority 1996, dated 1997)
